In ChEMBL document CHEMBL1139950, “Derivatives of oxoisoaporphine alkaloids: a novel class of selective acetylcholinesterase inhibitors” (Bioorg Med Chem Lett, 2007):
pIC50: −log10 of the molar value.

Tests used:
Butyrylcholinesterase = Butyrylcholinesterase (Equus caballus, UniProt Q9N1N9); assay: Inhibition of equine serum BuChE
[1] = Selectivity for electric eel AChE over equine serum BuChE
Acetylcholinesterase = Acetylcholinesterase (Electrophorus electricus, UniProt O42275); assay: Inhibition of electric eel AChE
Sequence of Acetylcholinesterase (O42275 whole entry): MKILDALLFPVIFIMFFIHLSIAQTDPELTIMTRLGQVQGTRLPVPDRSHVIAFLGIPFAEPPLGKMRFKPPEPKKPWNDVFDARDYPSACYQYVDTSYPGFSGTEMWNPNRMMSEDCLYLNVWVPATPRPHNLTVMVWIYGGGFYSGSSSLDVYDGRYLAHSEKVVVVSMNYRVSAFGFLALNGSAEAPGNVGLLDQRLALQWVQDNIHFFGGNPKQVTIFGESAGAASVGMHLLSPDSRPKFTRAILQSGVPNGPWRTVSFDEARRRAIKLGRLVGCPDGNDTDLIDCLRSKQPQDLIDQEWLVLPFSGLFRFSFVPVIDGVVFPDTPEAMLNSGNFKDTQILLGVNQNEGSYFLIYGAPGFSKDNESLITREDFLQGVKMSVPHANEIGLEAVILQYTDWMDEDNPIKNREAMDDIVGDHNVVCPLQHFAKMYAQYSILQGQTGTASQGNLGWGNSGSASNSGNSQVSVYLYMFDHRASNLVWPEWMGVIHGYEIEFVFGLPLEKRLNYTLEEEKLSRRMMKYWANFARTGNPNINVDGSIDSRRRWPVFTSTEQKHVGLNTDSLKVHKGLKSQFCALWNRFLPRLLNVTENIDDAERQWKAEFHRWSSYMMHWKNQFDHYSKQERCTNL

Sequence of Butyrylcholinesterase (Q9N1N9 whole entry): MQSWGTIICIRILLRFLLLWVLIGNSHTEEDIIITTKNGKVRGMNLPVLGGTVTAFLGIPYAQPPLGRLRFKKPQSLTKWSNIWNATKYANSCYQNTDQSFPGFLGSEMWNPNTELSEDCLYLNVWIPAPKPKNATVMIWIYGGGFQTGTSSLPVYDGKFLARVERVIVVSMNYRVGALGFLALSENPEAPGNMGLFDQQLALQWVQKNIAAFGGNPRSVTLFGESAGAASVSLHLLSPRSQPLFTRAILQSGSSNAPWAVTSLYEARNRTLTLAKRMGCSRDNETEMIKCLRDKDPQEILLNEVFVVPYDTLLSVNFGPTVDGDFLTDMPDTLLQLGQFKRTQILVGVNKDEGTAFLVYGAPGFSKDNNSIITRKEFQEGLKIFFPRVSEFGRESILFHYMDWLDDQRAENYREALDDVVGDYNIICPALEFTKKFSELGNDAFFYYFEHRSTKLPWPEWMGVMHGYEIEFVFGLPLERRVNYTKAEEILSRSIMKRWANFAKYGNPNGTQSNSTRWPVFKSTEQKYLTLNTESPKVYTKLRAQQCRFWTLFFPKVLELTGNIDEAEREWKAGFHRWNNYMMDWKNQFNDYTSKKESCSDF

## O=C(CCNCCO)Nc1ccc2c(c1)C(=O)c1cccc3ccnc-2c13
Butyrylcholinesterase
  pIC50: 5.27
[1]
  Ratio IC50: 97
Acetylcholinesterase
  pIC50: 7.26

## C[N+]1(CCC(=O)Nc2ccc3c(c2)C(=O)c2cccc4ccnc-3c24)CCCC1
Butyrylcholinesterase
  pIC50: 5.71
[1]
  Ratio IC50: 1850
Acetylcholinesterase
  pIC50: 8.97

## CN(C)CC(=O)Nc1ccc2c(c1)C(=O)c1cccc3ccnc-2c13
Butyrylcholinesterase
  pIC50: 5.36
[1]
  Ratio IC50: 45
Acetylcholinesterase
  pIC50: 7.02

## C[N+](C)(C)CCC(=O)Nc1ccc2c(c1)C(=O)c1cccc3ccnc-2c13
Butyrylcholinesterase
  pIC50: 5.55
[1]
  Ratio IC50: 590
Acetylcholinesterase
  pIC50: 8.32

## CCN(CC)CCC(=O)Nc1ccc2c(c1)C(=O)c1cccc3ccnc-2c13
Butyrylcholinesterase
  pIC50: 5.22
[1]
  Ratio IC50: 523
Acetylcholinesterase
  pIC50: 7.94

## C[N+](C)(C)CC(=O)Nc1ccc2c(c1)C(=O)c1cccc3ccnc-2c13
Butyrylcholinesterase
  pIC50: 5.88
[1]
  Ratio IC50: 88
Acetylcholinesterase
  pIC50: 7.83

## C[N+]1(CCCC(=O)Nc2ccc3c(c2)C(=O)c2cccc4ccnc-3c24)CCCC1
Butyrylcholinesterase
  pIC50: 5.49
[1]
  Ratio IC50: 1290
Acetylcholinesterase
  pIC50: 8.60

## CN(C)CCCC(=O)Nc1ccc2c(c1)C(=O)c1cccc3ccnc-2c13
Butyrylcholinesterase
  pIC50: 5.36
[1]
  Ratio IC50: 144
Acetylcholinesterase
  pIC50: 7.52

## CC[N+](C)(CC)CCCC(=O)Nc1ccc2c(c1)C(=O)c1cccc3ccnc-2c13
Butyrylcholinesterase
  pIC50: 5.28
[1]
  Ratio IC50: 1980
Acetylcholinesterase
  pIC50: 8.58

## C[N+](C)(C)CCCC(=O)Nc1ccc2c(c1)C(=O)c1cccc3ccnc-2c13
Butyrylcholinesterase
  pIC50: 5.63
[1]
  Ratio IC50: 490
Acetylcholinesterase
  pIC50: 8.32

## O=C(CN1CCCC1)Nc1ccc2c(c1)C(=O)c1cccc3ccnc-2c13
Butyrylcholinesterase
  pIC50: 5.46
[1]
  Ratio IC50: 560
Acetylcholinesterase
  pIC50: 8.21

## O=C(CCN1CCCC1)Nc1ccc2c(c1)C(=O)c1cccc3ccnc-2c13
Butyrylcholinesterase
  pIC50: 5.62
[1]
  Ratio IC50: 980
Acetylcholinesterase
  pIC50: 8.61

## Nc1ccc2c(c1)C(=O)c1cccc3ccnc-2c13
Butyrylcholinesterase
  pIC50: 4.00
Acetylcholinesterase
  pIC50: 4.57

## O=C(CCCN1CCCC1)Nc1ccc2c(c1)C(=O)c1cccc3ccnc-2c13
Butyrylcholinesterase
  pIC50: 5.44
[1]
  Ratio IC50: 300
Acetylcholinesterase
  pIC50: 7.92

## C[N+]1(CC(=O)Nc2ccc3c(c2)C(=O)c2cccc4ccnc-3c24)CCCC1
Butyrylcholinesterase
  pIC50: 5.77
[1]
  Ratio IC50: 1560
Acetylcholinesterase
  pIC50: 8.97

## CN(C)CCC(=O)Nc1ccc2c(c1)C(=O)c1cccc3ccnc-2c13
Butyrylcholinesterase
  pIC50: 5.71
[1]
  Ratio IC50: 58
Acetylcholinesterase
  pIC50: 7.47

## CN(C)CCNCCC(=O)Nc1ccc2c(c1)C(=O)c1cccc3ccnc-2c13
Butyrylcholinesterase
  pIC50: 5.27
[1]
  Ratio IC50: 45
Acetylcholinesterase
  pIC50: 6.92
